Test results published in US12030824B2 (priority 2016, dated 2024).
Entries after “also recorded” stand apart in the source; their conditions may differ.

Assays:
plant growth = experiment: Applicant's observation of plant growth induction by 1-octen-3-ol; type: in vivo; settings: very low concentrations
[1] = tested on: cabbage aphid Brevicoryne brassicae; experiment: Control of aphids on cabbage, single spray; type: in vivo; settings: white flies on tomato and cabbage aphids on cabbage
White flies = experiment: Control of white flies on greenhouse tomatoes with OPB+microbial strains; type: in vivo, Bremia spp.; settings: single spray
[2] = tested on: root knot nematode, Meloidgyne javanica; experiment: Split-root greenhouse trial on tomato with root knot nematode (Nemlab); type: in vivo; settings: for overall effectiveness in nematode control: split-root greenhouse trial; for Number of Eggs/Root System, Pot 1—nem. alone (of split root system) / Numbers of female nematodes/root, Pot 1—nem. alone (of split root system) / Galling Index, Pot 1—nem. alone (of split root system) / Number of Eggs/Root System, Pot 2—agent + nematode (of split root system) / Numbers of female nematodes/root, Pot 2—agent + nematode (of split root system) / Galling Index, Pot 2—agent + nematode (of split root system): tomato split root; for Number of Eggs/Root System, Pot 1—nem. alone (of split root system) / Numbers of female nematodes/root, Pot 1—nem. alone (of split root system): root half with M. javanica only; for Galling Index, Pot 1—nem. alone (of split root system): root half with M. javanica only (systemic), scale 0 no galls to 5 100% of roots with galls; for Number of Eggs/Root System, Pot 2—agent + nematode (of split root system) / Numbers of female nematodes/root, Pot 2—agent + nematode (of split root system) / Galling Index, Pot 2—agent + nematode (of split root system): root half with M. javanica plus agent; for Galling Index, Pot 2—agent + nematode (of split root system): scale 0 no galls to 5 100%
Description: Comprehensive evaluation of the strains in greenhouse trials. […] It is difficult to obtain statistically valid results directly on nematode control from natural infestations since the levels of nematodes differ widely on a microsite level. Therefore, controlled greenhouse tests were conducted with Nemlab, a company in South Africa who specializes in nematode control testing. This trial was designed to consider mechanisms as well as direct contact control. As noted earlier, induction of systemic resistance was considered highly desirable, and would be expected given the generalized mechanisms of action described in Example 3, FIG. 8. To assess this character, tomato plants were grown for 6 weeks and then the roots were split into two, and each half root was placed into a separate pot with a single shoot. Except for water controls, 500-1000 eggs of the root knot nematode, Meloidgyne javanica were placed into each root system, but only one side, the various treatments were placed the biocontrol agents at 10^8 cfu/g soil. So, one root system of each plant contained nematodes only while the other contained nematodes plus the treatments. The treatments are shown below; there were six replicates per treatment. […] The experiment was designed to evaluate the ability of each strain to directly control (pot 2) and to control at-a-distance, the nematodes. […] There were a number of evaluations made of the plants at the end of the experiment, and the most important are shown below in Table 4 ([…] Index). Root galling is an index of the formation of 'knots' on roots that give root knot nematode its name and is an index of the root damage. The galls are the areas where the nematode is infesting the root and laying its eggs. The scale=0, no galls, 1, visible galling, 2, 25% of roots with galls, 3, 50% of roots with galls, 4, 75%, and 5, 100%.

maize = experiment: ABM trials and field testing of commercial products and strains on corn; type: in vivo
wheat = experiment: Greenhouse wheat seedlings, foliar spray; type: in vivo; settings: foliar spray vs water only; FIG. 3
Excerpt: Trichoderma strain K5 increases growth in greenhouse grown wheat when applied as a foliar treatment. […] Control plants were sprayed with water only.

corn (Zea mays) = experiment: Corn field trial ABM14 (1st field trial), seed treatments; type: in vivo; settings: both ABM14 and ABM15 studies
nematodes = experiment: Field trial in Iowa in a field heavily infested with nematodes: yields; settings: Iowa nematode-infested field
[3] = tested on: plant parasitic nematodes; experiment: Field trials with sunflowers in South Africa, root galling; type: in vivo; settings: sunflower, naturally infested field, FIG. 12
Description: Field trials with sunflowers in the field in South Africa. Trials were conducted in the Republic of South Africa. Sunflower seeds were treated with various microorganisms and planted into soil infested with plant parasitic nematodes. After the plants were mature, roots were harvested and rated for root galling caused by the nematodes. The variability was quite large in this naturally infested field.

corn = experiment: Corn trials in the greenhouse, seed treatment; type: in vivo; settings: FIG. 2
Excerpt: Corn trials in the greenhouse. […] The growth differences are clearly evident.

soybean = experiment: Greenhouse soybean in sand tubes, seed treatment; type: in vivo; settings: stem length, Spad, root weight, root volume; FIG. 4; significant at alpha=0.05 or 0.01
Description: Trichoderma strain K5 increases growth in soybean in the greenhouse when applied as a seed treatment. Soybean seeds were treated with either T. virens NRRL B-5025 strain or left untreated with no other microbial or chemical treatments being applied. These were planted into sand tubes and growth data was collected as the seeds emerged and the seedlings grew. […] All of the differences shown in FIG. 4 are significant at alpha=0.05 or 0.01.

For `C=CC(O)CCCCC` (stereo not shown) [1-octen-3-ol], the “induction of plant growth” value (plant growth) was “potent inducer of enhanced plant growth”.

In the case of “Bacillus amyloliquifaciens [Bacillus AS2]”, the “conclusion from the combined two experiments” value (shortened to “conclusion”) [1] is reported as “highly effective”, the “duration of white fly control” value (White flies) is reported as “effects continued at least three weeks” and the “overall effectiveness in nematode control” value [2] is reported as “nearly as good an effect”. For the same compound, the “Number of Eggs/Root System, Pot 1—nem. alone (of split root system)” value [2] was 2481, the “Numbers of female nematodes/root, Pot 1—nem. alone (of split root system)” value [2] was 14.67 and the “Galling Index, Pot 1—nem. alone (of split root system)” value (“Galling Index, Pot 1—nem. alone” below) [2] was 2.3. The “Number of Eggs/Root System, Pot 2—agent + nematode (of split root system)” value [2] was 970, the “Numbers of female nematodes/root, Pot 2—agent + nematode (of split root system)” value [2] was 8.16 and the “Galling Index, Pot 2—agent + nematode (of split root system)” value (“Galling Index, Pot 2—agent + nematode” for short) [2] was 2.0.

For “T. virens strain ATCC 20906 [Trichoderma K1]”, the “impact on corn in field testing” value (maize) was “negative impact on corn”, the “conclusion” value [1] was “highly effective” and the “duration of white fly control” value (White flies) was “effects continued at least three weeks”. For the same compound, the “Number of Eggs/Root System, Pot 1—nem. alone (of split root system)” value [2] was 45631, the “Numbers of female nematodes/root, Pot 1—nem. alone (of split root system)” value [2] was 25.17 and the “Galling Index, Pot 1—nem. alone” value [2] was 3.33. The “Number of Eggs/Root System, Pot 2—agent + nematode (of split root system)” value [2] was 48765, the “Numbers of female nematodes/root, Pot 2—agent + nematode (of split root system)” value [2] was 35.7 and the “Galling Index, Pot 2—agent + nematode” value [2] was 3.17.

In the case of “Trichoderma gamsii (NRRL B-50520) [Trichoderma K5]”, the “growth of wheat seedlings” value (wheat) is reported as “clearly larger and more vigorous; also recorded: significant growth increase”, the “grain yields” value (corn (Zea mays)) is reported as “largest grain yields” and the “yield performance” value (nematodes) is reported as “excellent performance”. The “conclusion” value [1] was “highly effective”, the “duration of white fly control” value (White flies) was “effects continued at least three weeks” and the “root galling index” value [3] was “lowest numerical galling index of the biological treatments”. For the same compound, the “overall effectiveness in nematode control” value [2] was “most effective treatment”, the “Number of Eggs/Root System, Pot 1—nem. alone (of split root system)” value [2] was 1298 and the “Numbers of female nematodes/root, Pot 1—nem. alone (of split root system)” value [2] was 4.0. For the same compound, the “Galling Index, Pot 1—nem. alone” value [2] was 1.3, the “Number of Eggs/Root System, Pot 2—agent + nematode (of split root system)” value [2] was 493 and the “Numbers of female nematodes/root, Pot 2—agent + nematode (of split root system)” value [2] was 8.5. The “Galling Index, Pot 2—agent + nematode” value [2] was 2.17, the “growth of corn plants” value (corn) was “improved growth and development” and the “soybean seedling growth” value (soybean) was “significantly increase soybean seedling growth”.
